Our source for the outcome and PGE2 EC50 with compound values is PubChem BioAssay AID1421 (Emory University Molecular Libraries Screening Center, 2008).

Active and inactive are the calls of the source. No rule for the calls is given here.

Prostaglandin E2 receptor EP2 subtype (Homo sapiens), sequence (P43116 whole entry, looked up): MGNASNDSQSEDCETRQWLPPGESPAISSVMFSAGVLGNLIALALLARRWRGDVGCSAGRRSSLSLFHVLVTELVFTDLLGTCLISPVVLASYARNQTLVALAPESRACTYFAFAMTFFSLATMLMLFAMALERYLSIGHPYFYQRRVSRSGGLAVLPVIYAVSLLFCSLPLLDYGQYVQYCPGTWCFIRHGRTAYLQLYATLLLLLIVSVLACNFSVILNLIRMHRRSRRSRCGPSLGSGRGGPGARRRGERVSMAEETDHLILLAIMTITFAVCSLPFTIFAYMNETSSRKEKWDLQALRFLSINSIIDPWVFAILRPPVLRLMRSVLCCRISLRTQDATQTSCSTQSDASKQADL

One assay concerns the target Prostaglandin E2 receptor EP2 subtype (Homo sapiens) (UniProt P43116). Description: compounds shifting PGE2 potency at EP2 – cell-based, human EP2, PGE2 EC50 shift, dose response (AID 1421). As to conditions: EP2-expressing cells, PGE2 EC50 shift by compound.
On to `CCc1ccccc1NC1c2ccccc2C(=O)N1c1cc(C)ccn1` (configuration not stated), for which the result was active.
Still for that read-out and setting: for `CCn1c2c(c3cc(OCC(C)C)ccc31)CCCC2=O` the value was “active”.
Same read-out and setting: next, `CC(C)OC(=O)c1c(NC(=O)CCn2nnc3ccccc32)sc2c1CCCC2`: “active”.
Still for that read-out and setting: next, `CC(C)Oc1nc(-c2ccccc2O)nc2ccccc12`: “active”; `CCOC(=O)c1cc(CC)sc1NC(=O)c1ccc2c(c1)OCCO2`: “active”; `CCCOc1ccc(Cl)cc1CNc1ccccc1`: “active”.
For `CC1=CC(C)(C)N(C(=O)c2ccccc2)c2ccccc21`, the result was active.
The same measure, in the same setting: for `C/C(=N\NC(=O)NC1CCCCC1)C1CCCCC1` the value was “active”; for `Cc1ccc2nc(Nc3ccc4[nH]c(=O)[nH]c4c3)c(-n3nc(C)cc3C)nc2c1`, “active”.
Regarding `CC(C)C1COC(c2cccn2Cc2ccccc2Cl)=N1` (configuration not stated), the result was active.
Same read-out and setting: for `Cc1ccc(C(=O)Nc2ccccc2N2CCCCC2)cc1[N+](=O)[O-]` the value was “active”.
Still for that read-out and setting: for `CCOc1ccccc1NC1c2ccccc2C(=O)N1c1ccc(C)cn1` (configuration not stated) the value was “active”.

Still in this assay, the particulars now being: EP2-expressing cells, PGE2 EC50 shift by compound; measured here: PGE2 EC50 at 6.7 uM compound.
Regarding `CCn1c(COc2ccc(Cl)cc2)nnc1SCC(=O)Nc1ccc2c(c1)OCO2`, the PGE2 EC50 with compound is 1.09 nM.
Regarding `COc1ccc2cc3c(N)nn(C(=O)C4CCC(C(C)(C)C)CC4)c3nc2c1` (configuration not stated), the PGE2 EC50 with compound is 1.08 nM.
Still for that read-out and setting: for `O=C(Nc1cccc2cccnc12)c1ccc(Br)o1` the value was 1.22 nM; for `N#CCSc1nc2sc3c(c2c(=O)n1C1CCCCC1)CCCC3`, 0.76 nM.
On the same count and under the same terms, next, `CCCSc1nc(N2CCOCC2)c2c(c1C#N)CCCC2`: 1.06 nM.
On the same count and under the same terms, next, `CCOC(=O)Cc1csc(NC(=O)c2cc(=O)c3ccccc3o2)n1`: 1.36 nM; `CC1=C/C(=C(/c2ccc(O)c(C)c2)c2ccccc2C(=O)O)C=CC1=O`: 0.96 nM.
On to `Cc1cc(NC(=O)CN2CCCC(C)C2)n(-c2nc3ccccc3s2)n1` (configuration not stated), for which the PGE2 EC50 with compound was 0.75 nM.
On the same count and under the same terms, next, `O=C(c1cn(Cc2ccccc2)c2ccccc12)C1CC1`: 2.61 nM; `Cc1ccc(NCc2n[nH]c(=S)n2Cc2ccccc2)cc1Cl`: 1.2 nM.
On the same count and under the same terms, for `COC(=O)c1ccc(Oc2cc(C)nc(NCc3ccccc3)n2)cc1` the value was 0.34 nM; for `O=C1c2ccccc2OC2(C=Cc3ccccc3O2)N1Cc1ccccc1` (configuration not stated), 0.31 nM.
The same measure, in the same setting: for `CN(C)c1nc(-c2ccccc2)c2cnn(Cc3ccccc3)c2n1` the value was 1.12 nM; for `CSc1nnc(-c2ccc(F)cc2)o1`, 1.71 nM; for `CCc1ccccc1NC1c2ccccc2C(=O)N1c1cc(C)ccn1` (configuration not stated), 2.49 nM.
As to `CC1=CCc2c(cc3oc(C)cc(=O)c3c2O)OC1`, the PGE2 EC50 with compound worked out at 1.3 nM.
In the case of `CCn1c2c(c3cc(OCC(C)C)ccc31)CCCC2=O`, the PGE2 EC50 with compound came out at 1.09 nM.
Still for that read-out and setting: next, `C#CCSc1nc(Cc2ccc(Cl)cc2)nc2ccccc12`: 1.22 nM.
Regarding `CCOC(=O)c1c(NC(=O)c2ccc(Br)o2)sc(C)c1CC`, the PGE2 EC50 with compound amounted to 0.94 nM.
The same measure, in the same setting: for `Cc1ccc(-c2cccc(C(=O)NCc3ccccc3)n2)c2ccccc12` the value was 0.32 nM; for `Cn1c(=O)c2c(nc(CN3CCN(c4ccccc4)CC3)n2Cc2c(F)cccc2Cl)n(C)c1=O`, 1.38 nM.
The same measure, in the same setting: for `Cc1cc(C(=O)NCC(c2ccco2)N(C)C)no1` (configuration not stated) the value was 2.55 nM; for `Cc1nc2ccccc2nc1SCC(=O)N1CCC(C)CC1`, 2.77 nM.
Same read-out and setting: next, `CCOC(=O)c1c(NC(=O)CN2CCN(C(=O)c3ccco3)CC2)sc2c1CCCC2`: 0.85 nM; `C=CCc1cc(C=O)cc(OC)c1OCc1c(Cl)cccc1Cl`: 0.59 nM.
`CCN(CC)C(=O)Cn1cc(C(=O)C(=O)NCc2ccco2)c2ccccc21`: the PGE2 EC50 with compound came to 1.55 nM.
Same read-out and setting: for `Cc1ccc(C)n1-c1sc2c(c1C#N)CCCC2` the value was 2.65 nM.
Same read-out and setting: for `CC(C)OC(=O)c1c(NC(=O)CCn2nnc3ccccc32)sc2c1CCCC2` the value was 1 nM; for `Cc1ccc(-n2c(=S)[nH]c3c(oc4ccccc43)c2=O)cc1`, 2.77 nM; for `CNC(=O)c1cc2c(=O)n3cc(C)ccc3nc2n(C(C)C)c1=N`, 1.13 nM.
On the same count and under the same terms, for `CCc1ccc2[nH]c(=O)c(CN(Cc3nnnn3C3CCCC3)C3CCCCC3)cc2c1` the value was 0.8 nM; for `Cc1ccccc1Cn1c(Cc2ccccc2)nc2ccccc21`, 2.76 nM; for `CCOC(=O)c1c(NC(=O)c2cccs2)sc2c1CCN(C(=O)OCC)C2`, 1.53 nM.
On to `COc1c(Cl)cc(Cl)cc1C(=O)n1nc(C)cc1C`, for which the PGE2 EC50 with compound came to 1.14 nM.
The same measure, in the same setting: next, `CCOC(=O)c1c(NC(=O)COC(=O)Cn2c(C)nc3ccccc32)sc2c1CCCC2`: 1.02 nM; `CCN1CCN(c2c(Cl)cccc2NC(=O)c2ccc(Br)o2)CC1`: 2.53 nM.
On the same count and under the same terms, next, `C=C1CCC2C(CC2(C)C)C(=C)CC/C1=N/O` (configuration not stated): 1.61 nM; `CC(C)Oc1nc(-c2ccccc2O)nc2ccccc12`: 1.01 nM.
Same read-out and setting: for `Fc1ccc(Sc2nc(-c3ccccc3)nnc2C(F)(F)F)cc1` the value was 0.94 nM.
In the case of `Cc1ccc2c(c1)-c1nc3ccccc3cc1C2=NC1CCCCC1`, the PGE2 EC50 with compound was 1.41 nM.
